Molecular target: T1, MAGL (Homo sapiens, UniProt Q99685)
T1 sequence (Q99685 1-303): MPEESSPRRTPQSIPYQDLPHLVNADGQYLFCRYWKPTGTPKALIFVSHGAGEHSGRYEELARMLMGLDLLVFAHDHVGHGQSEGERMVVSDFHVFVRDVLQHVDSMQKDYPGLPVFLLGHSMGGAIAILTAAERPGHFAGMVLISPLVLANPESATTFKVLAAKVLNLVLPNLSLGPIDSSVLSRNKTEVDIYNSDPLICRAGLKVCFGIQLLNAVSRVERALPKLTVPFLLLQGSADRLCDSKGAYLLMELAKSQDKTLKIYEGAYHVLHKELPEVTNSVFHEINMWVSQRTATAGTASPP
Assay: 2-AG assay: MAGL inhibitory activity by hydrolysis of 2-arachidonoylglycerol to arachidonic acid, mass spectrometry
Assay type: biochemical
Details: 2-AG assay (values marked [b])
How it was run: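 Hydrolysis of 8 μM 2-arachidonoylglycerol by […] was run for 30 min at RT after a 15 min compound preincubation, in Tris/EDTA/Tween buffer. Test compounds spanned […]. The product was measured by online SPE-MS/MS (transitions 303.1→259.1 and 311.1→267.0), and activity was derived from the arachidonic acid/d8-arachidonic acid signal ratio.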

| IC50 | SMILES |
| --- | --- |
| 117 nM | CCC1(COc2ncc(C(=O)N3CCN(c4nc5nc(Cl)ccc5o4)CC3)cc2C)COC1 [Example 159, (4-(5-chlorooxazolo[4,5-b]pyridin-2-yl)piperazin-1-yl)(6-((3-ethyloxetan-3-yl)methoxy)-5-methylpyridin-3-yl)methanone] |
| 295 nM | COCC1(COc2ncc(C(=O)N3CCN(c4nc5nc(Cl)ccc5o4)CC3)cc2C)CC1 [Example 160, (4-(5-chlorooxazolo[4,5-b]pyridin-2-yl)piperazin-1-yl)(6-((1-(methoxymethyl)cyclopropyl)methoxy)-5-methylpyridin-3-yl)methanone] |
| 906 nM | Cc1cc(C(=O)N2CCN(c3nc4nc(Cl)ccc4o3)CC2)cnc1OCC1(F)COC1 [Example 161, (4-(5-chlorooxazolo[4,5-b]pyridin-2-yl)piperazin-1-yl)(6-((3-fluorooxetan-3-yl)methoxy)-5-methylpyridin-3-yl)methanone] |
| 230 nM | Cc1cc(C(=O)N2CCN(c3nc4nc(Cl)ccc4o3)CC2)cnc1OCC1(CC#N)CC1 [Example 162, 2-(1-(((5-(4-(5-chlorooxazolo[4,5-b]pyridin-2-yl)piperazine-1-carbonyl)-3-methylpyridin-2-yl)oxy)methyl)cyclopropyl)acetonitrile] |
| 677 nM | Cc1cc(C(=O)N2CCN(c3nc4nc(Cl)ccc4o3)CC2)cnc1OCC1(C#N)CC1 [Example 163, 1-(((5-(4-(5-chlorooxazolo[4,5-b]pyridin-2-yl)piperazine-1-carbonyl)-3-methylpyridin-2-yl)oxy)methyl)cyclopropane-1-carbonitrile] |
| 1540 nM | Cc1cc(C(=O)N2CCN(c3nc4nc(Cl)ccc4o3)CC2)cnc1OCC1(C#N)COC1 [Example 164, 3-(((5-(4-(5-chlorooxazolo[4,5-b]pyridin-2-yl)piperazine-1-carbonyl)-3-methylpyridin-2-yl)oxy)methyl)oxetane-3-carbonitrile] |
| 42 nM | Cc1cc(C(=O)N2CCN(c3nc4nc(Cl)ccc4o3)CC2)cnc1OCc1cc(F)cc(C#N)c1 [Example 165, 3-(((5-(4-(5-chlorooxazolo[4,5-b]pyridin-2-yl)piperazine-1-carbonyl)-3-methylpyridin-2-yl)oxy)methyl)-5-fluorobenzonitrile] |
| 475 nM | Cc1cc(C(=O)N2CCN(c3nc4nc(Cl)ccc4o3)CC2)cnc1OCC1CCCO1 (stereo not shown) [Example 166, (4-(5-chlorooxazolo[4,5-b]pyridin-2-yl)piperazin-1-yl)(5-methyl-6-((tetrahydrofuran-2-yl)methoxy)pyridin-3-yl)methanone] |
| 63 nM | Cc1ccc2oc(N3CCN(C(=O)c4cnc(OCC5(C(F)(F)F)CC5)c(C)n4)CC3)nc2n1 [Example 167, [4-(5-methyloxazolo[4,5-b]pyridin-2-yl)piperazin-1-yl]-[6-methyl-5-[[1-(trifluoromethyl)cyclopropyl]methoxy]pyrazin-2-yl]methanone] |
| 1750 nM | Cc1cc(C(=O)N2CCN(c3nc4nc(Cl)ccc4o3)CC2)cnc1OCC1CCO1 (stereo not shown) [Example 168, (4-(5-chlorooxazolo[4,5-b]pyridin-2-yl)piperazin-1-yl)(5-methyl-6-(oxetan-2-ylmethoxy)pyridin-3-yl)methanone] |
| 138 nM | COc1cc(C(=O)N2CCN(c3nc4nc(C)ccc4o3)CC2)cnc1OCC1(C(F)(F)F)CC1 [Example 169, [5-methoxy-6-[[1-(trifluoromethyl)cyclopropyl]methoxy]-3-pyridyl]-[4-(5-methyloxazolo[4,5-b]pyridin-2-yl)piperazin-1-yl]methanone] |
| 57 nM | Cc1cc(C(=O)N2CCN(c3nc4nc(Cl)ccc4o3)CC2)cnc1OCC1CCCCO1 (stereo not shown) [Example 170, (4-(5-chlorooxazolo[4,5-b]pyridin-2-yl)piperazin-1-yl)(5-methyl-6-((tetrahydro-2H-pyran-2-yl)methoxy)pyridin-3-yl)methanone] |
| 188 nM | COC1(COc2ncc(C(=O)N3CCN(c4nc5nc(Cl)ccc5o4)CC3)cc2C)CC1 [Example 171, (4-(5-chlorooxazolo[4,5-b]pyridin-2-yl)piperazin-1-yl)(6-((1-methoxycyclopropyl)methoxy)-5-methylpyridin-3-yl)methanone] |

— patent publication US20220135591A1, “HETEROCYCLIC COMPOUNDS AS INHIBITORS OF MONOACYLGLYCEROL LIPASE (MAGL)” (Hoffmann-La Roche Inc., priority 2019, published 2022)
